# Measured values published in ChEMBL document CHEMBL1201862, “PubChem BioAssay data set” (2004).
# The source made the active and inactive calls.
# Assays:
# Cysteine protease ATG4B = target: T1, Cysteine protease ATG4B (Homo sapiens, UniProt Q9Y4P1); experiment: ATG4B protease inhibitors, dose response, biochemical, fluorescence, set 2 (AID 588584); format: functional
# T1 sequence (Q9Y4P1 whole entry): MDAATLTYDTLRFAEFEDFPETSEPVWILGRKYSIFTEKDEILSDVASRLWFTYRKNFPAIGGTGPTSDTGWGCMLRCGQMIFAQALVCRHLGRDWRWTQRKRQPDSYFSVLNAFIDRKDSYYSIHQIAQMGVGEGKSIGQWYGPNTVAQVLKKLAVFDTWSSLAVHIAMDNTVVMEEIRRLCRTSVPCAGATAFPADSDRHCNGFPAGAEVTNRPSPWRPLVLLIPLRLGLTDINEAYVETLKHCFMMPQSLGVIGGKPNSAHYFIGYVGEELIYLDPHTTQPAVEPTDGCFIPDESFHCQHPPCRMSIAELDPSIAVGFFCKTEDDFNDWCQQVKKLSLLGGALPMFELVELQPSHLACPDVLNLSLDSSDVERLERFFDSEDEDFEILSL
# [1] = target: T2, Neuropeptide Y receptor type 1 (Homo sapiens, UniProt P25929); format: functional;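 also: HEK293 cells with a CNG channel challenged with NPY then isoproterenol; potency as antagonist that reverses NPY suppression of cAMP signal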
# T2 sequence (P25929 whole entry): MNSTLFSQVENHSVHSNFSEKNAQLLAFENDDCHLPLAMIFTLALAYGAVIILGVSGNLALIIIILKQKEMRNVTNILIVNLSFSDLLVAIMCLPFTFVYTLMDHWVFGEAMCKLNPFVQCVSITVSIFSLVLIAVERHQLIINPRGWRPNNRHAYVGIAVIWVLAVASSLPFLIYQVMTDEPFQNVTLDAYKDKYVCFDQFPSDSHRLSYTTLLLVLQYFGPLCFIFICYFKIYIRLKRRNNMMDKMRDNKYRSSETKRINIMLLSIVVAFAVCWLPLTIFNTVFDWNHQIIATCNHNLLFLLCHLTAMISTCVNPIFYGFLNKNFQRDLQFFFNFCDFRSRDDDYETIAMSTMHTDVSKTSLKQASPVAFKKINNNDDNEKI
# [2] = target: T3, Neuropeptide Y receptor type 2 (Homo sapiens, UniProt P49146); format: functional, cell-based;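 also: HEK293 cells expressing the receptor and a CNG channel; stimulus was NPY near EC95 followed by isoproterenol to raise cAMP; antagonist potency measured as restoring cAMP signal that NPY suppresses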
# T3 sequence (P49146 whole entry): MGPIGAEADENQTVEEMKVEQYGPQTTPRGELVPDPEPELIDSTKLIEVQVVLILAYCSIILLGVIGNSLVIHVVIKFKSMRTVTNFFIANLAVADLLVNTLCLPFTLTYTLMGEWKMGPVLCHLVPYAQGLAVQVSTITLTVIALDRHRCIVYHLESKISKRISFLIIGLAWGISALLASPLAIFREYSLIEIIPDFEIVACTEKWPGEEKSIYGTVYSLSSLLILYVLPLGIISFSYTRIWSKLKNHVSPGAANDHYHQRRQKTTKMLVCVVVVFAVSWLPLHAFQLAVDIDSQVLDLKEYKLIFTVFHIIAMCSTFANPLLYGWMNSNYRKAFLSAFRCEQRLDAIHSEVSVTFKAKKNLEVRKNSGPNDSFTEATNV
# Phospholipase A2 = Phospholipase A2 (Homo sapiens, UniProt P04054); experiment: PLA2 enzyme inhibitors, dose response, counter-screen for ATG4B inhibitor project, biochemical, set 2 (AID 588586); format: functional
# Phospholipase A2, sequence (P04054 whole entry): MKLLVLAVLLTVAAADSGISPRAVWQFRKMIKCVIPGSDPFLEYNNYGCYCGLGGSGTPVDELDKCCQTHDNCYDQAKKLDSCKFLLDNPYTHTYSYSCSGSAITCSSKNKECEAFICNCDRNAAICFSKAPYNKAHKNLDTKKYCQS
# [3] = target: T4, Small ubiquitin-related modifier 1 (Homo sapiens, UniProt P63165); experiment: inhibitors of SUMO1 peptide binding, dose response, biochemical, fluorescence polarization, uHTS hits (AID 624382); format: functional; details: read-out: IC50_Mean
# T4 sequence (P63165 whole entry): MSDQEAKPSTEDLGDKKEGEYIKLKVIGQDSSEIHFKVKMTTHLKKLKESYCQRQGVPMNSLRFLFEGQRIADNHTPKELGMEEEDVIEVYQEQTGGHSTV
# [4] = target: T5, Apoptotic protease-activating factor 1 (Homo sapiens, UniProt O14727); experiment: SAR analysis of small molecule Activators of Apaf-1 in a Fluorescent assay.; format: functional; details: read-out: EC50_Mean
# T5 sequence (O14727 whole entry): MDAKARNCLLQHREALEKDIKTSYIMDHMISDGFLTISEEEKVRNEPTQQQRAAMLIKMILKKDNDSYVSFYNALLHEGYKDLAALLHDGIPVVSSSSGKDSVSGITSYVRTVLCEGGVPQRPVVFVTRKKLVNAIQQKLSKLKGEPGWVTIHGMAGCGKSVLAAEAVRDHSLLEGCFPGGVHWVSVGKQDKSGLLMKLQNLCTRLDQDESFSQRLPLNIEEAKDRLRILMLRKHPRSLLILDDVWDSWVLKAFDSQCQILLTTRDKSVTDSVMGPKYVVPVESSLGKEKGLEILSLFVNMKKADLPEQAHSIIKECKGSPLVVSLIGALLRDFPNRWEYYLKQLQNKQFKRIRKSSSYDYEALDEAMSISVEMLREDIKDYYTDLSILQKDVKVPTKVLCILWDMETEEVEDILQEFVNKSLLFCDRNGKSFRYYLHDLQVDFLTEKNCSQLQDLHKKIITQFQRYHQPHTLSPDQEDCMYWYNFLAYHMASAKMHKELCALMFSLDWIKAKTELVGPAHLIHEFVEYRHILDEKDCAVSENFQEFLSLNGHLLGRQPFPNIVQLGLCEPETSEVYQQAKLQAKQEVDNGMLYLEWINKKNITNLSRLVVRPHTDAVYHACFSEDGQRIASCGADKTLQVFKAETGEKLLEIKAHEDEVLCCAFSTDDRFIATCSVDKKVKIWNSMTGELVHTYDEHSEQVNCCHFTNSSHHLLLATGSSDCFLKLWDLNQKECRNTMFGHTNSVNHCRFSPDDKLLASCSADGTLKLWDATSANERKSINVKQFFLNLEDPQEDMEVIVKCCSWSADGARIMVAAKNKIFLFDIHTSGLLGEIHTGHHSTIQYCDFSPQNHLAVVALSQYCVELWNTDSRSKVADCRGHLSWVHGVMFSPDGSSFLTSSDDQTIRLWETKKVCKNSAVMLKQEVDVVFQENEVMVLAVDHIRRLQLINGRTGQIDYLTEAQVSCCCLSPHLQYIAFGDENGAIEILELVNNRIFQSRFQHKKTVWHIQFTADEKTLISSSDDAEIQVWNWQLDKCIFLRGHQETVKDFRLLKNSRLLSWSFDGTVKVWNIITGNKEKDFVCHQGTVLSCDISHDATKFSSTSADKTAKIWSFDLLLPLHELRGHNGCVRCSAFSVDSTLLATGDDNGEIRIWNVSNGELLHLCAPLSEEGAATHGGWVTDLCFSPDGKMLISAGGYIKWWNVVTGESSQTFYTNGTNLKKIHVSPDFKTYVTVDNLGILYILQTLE
# [5] = target: T6, Voltage-gated N-type calcium channel alpha-1B subunit/Amyloid beta A4 precursor protein-binding family A member 1 (Homo sapiens, UniProt Q00975+Q02410); format: protein assay
# T6 sequence (Q00975 whole entry): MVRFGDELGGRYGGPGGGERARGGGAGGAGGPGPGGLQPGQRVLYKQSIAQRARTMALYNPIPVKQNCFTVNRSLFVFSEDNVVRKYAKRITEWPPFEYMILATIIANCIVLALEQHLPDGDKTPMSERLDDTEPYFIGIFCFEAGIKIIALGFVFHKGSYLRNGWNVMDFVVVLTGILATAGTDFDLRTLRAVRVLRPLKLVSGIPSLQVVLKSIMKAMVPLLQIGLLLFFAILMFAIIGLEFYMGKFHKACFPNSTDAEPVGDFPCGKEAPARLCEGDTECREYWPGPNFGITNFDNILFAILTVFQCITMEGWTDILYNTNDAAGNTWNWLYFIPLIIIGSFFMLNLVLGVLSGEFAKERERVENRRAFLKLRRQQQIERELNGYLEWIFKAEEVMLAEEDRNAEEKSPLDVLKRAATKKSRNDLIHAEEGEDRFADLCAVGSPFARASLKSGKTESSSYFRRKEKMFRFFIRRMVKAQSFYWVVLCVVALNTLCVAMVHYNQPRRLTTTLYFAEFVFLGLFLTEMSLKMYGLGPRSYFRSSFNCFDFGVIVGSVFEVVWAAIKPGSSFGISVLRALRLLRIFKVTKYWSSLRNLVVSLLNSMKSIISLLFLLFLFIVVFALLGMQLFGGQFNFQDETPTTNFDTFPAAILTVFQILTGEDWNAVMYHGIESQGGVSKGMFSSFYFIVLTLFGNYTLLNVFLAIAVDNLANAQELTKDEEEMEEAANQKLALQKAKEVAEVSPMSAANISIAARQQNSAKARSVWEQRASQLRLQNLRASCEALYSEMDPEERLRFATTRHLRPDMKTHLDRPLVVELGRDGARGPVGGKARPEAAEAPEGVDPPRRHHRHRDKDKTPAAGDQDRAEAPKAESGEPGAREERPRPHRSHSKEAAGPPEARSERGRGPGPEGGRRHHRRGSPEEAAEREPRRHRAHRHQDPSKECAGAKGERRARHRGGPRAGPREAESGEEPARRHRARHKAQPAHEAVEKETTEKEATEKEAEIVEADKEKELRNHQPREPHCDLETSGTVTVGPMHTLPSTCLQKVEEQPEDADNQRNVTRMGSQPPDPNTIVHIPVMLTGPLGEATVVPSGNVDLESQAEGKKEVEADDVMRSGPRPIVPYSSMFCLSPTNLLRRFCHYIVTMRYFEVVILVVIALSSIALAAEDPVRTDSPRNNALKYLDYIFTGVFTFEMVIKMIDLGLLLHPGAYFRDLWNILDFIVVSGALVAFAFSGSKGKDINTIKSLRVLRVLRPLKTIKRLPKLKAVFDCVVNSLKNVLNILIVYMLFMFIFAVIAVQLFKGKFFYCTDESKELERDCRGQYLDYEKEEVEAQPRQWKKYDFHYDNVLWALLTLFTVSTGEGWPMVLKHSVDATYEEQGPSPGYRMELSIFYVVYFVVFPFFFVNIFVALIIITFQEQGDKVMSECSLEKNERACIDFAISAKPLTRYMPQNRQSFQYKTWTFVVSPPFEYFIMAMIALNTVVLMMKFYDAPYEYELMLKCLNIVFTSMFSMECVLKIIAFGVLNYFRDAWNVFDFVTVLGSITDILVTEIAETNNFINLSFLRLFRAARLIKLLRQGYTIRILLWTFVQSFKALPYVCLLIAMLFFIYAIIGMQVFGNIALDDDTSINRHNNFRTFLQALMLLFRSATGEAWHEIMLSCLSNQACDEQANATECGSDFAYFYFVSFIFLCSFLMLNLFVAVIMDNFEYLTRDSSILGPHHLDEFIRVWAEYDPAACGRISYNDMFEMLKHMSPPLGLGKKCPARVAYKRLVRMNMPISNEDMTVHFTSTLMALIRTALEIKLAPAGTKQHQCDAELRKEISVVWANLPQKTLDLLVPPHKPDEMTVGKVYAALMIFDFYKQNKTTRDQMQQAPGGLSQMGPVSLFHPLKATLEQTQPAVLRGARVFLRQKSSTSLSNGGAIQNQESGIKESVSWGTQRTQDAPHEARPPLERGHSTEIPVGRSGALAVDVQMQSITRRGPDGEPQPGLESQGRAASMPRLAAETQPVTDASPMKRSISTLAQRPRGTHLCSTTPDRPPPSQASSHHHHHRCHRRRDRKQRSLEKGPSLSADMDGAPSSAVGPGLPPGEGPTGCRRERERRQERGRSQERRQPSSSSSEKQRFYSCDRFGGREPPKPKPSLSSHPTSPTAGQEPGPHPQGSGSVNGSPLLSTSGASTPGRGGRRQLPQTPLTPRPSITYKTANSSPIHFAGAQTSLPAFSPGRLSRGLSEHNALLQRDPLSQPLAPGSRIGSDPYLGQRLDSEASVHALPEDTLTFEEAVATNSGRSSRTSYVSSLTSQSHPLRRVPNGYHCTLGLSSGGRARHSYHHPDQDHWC
# T6 sequence (Q02410 whole entry): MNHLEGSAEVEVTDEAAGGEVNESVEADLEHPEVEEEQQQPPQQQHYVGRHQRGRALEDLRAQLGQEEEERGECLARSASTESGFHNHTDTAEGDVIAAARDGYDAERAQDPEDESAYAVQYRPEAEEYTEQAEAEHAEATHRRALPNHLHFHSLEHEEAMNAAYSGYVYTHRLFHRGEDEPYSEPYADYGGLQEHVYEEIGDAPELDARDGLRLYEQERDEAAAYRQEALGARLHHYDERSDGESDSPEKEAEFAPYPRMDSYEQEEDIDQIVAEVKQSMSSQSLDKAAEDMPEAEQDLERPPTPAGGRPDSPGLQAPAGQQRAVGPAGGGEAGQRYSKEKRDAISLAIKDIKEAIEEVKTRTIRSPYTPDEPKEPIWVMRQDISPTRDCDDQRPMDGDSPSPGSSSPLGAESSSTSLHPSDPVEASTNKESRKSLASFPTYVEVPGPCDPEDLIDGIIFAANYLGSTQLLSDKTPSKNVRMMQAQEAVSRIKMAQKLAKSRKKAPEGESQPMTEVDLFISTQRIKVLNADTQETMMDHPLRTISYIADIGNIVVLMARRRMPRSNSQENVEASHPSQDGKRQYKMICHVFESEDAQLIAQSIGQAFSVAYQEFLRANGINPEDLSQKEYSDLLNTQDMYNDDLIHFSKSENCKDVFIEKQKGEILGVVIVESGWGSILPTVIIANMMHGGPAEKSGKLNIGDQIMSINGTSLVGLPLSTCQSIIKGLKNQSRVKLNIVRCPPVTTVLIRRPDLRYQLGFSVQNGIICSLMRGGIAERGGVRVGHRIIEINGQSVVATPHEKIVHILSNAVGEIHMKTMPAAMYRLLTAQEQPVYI
# [6] = target: T5, Apoptotic protease-activating factor 1; experiment: activation of Apaf-1 mediated apoptosis – fluorescent, uHTS hits, dose response (AID 588554); format: functional
# [7] = target: T4, Small ubiquitin-related modifier 1; experiment: inhibitors of SUMO1 partner interactions, dose response, biochemical, FRET (AID 624383); format: functional; details: read-out: IC50_Mean
# [8] = target: T6, Voltage-gated N-type calcium channel alpha-1B subunit/Amyloid beta A4 precursor protein-binding family A member 1; format: protein assay; remark: listed apart in the source
# [9] = Shn3 3'UTR reporter inhibitors, dose response, cell-based, Clone20 osteoblasts, firefly luciferase, cherry-picked (AID 624132); format: functional;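 also: firefly luciferase luminescence from reporter carrying the Shn3 3'UTR in osteoblasts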
# BJ [10] = experiment: cells; format: functional, cell-based; details: Homo sapiens
# A-375 = experiment: MITF: Counter assay: A375 proliferation Measured in Cell-Based System Using Plate Reader - 2084-03_Inhibitor_Dose_DryPowder_Activity. [Related pubchem assays (depositor defined):AID488944]; format: functional; details: Homo sapiens
# BJ [11] = experiment: cytotoxicity toward BJ-TERT fibroblasts, dose response, cell-based, RAS-independent, luminescence (AID 1933); format: functional; details: Homo sapiens
# [12] = cytotoxicity toward DRD oncogenic fibroblasts, dose response, cell-based, non-viral oncogenic, luminescence (AID 1934); format: functional; details: Homo sapiens
# [13] = control 3'UTR Renilla luciferase suppression, dose response, counter-screen for Shn3 inhibitor project, cell-based, Clone20-Shn3RL, cherry-picked (AID 624133); format: functional
# [14] = HepG2 cell cytotoxicity, dose response, cytotoxicity control for Shn3 inhibitor project, CellTiter-Glo, cherry-picked (AID 624134); format: functional, cell-based
# [15] = target: T7, Microphthalmia-associated transcription factor (Homo sapiens, UniProt O75030); experiment: TRPM1 promoter luciferase signal decrease, dose response, MITF inhibitor project, cell-based, SK-MEL-5, cherry-picked, set 3 (AID 493073); format: functional
# T7 sequence (O75030 whole entry): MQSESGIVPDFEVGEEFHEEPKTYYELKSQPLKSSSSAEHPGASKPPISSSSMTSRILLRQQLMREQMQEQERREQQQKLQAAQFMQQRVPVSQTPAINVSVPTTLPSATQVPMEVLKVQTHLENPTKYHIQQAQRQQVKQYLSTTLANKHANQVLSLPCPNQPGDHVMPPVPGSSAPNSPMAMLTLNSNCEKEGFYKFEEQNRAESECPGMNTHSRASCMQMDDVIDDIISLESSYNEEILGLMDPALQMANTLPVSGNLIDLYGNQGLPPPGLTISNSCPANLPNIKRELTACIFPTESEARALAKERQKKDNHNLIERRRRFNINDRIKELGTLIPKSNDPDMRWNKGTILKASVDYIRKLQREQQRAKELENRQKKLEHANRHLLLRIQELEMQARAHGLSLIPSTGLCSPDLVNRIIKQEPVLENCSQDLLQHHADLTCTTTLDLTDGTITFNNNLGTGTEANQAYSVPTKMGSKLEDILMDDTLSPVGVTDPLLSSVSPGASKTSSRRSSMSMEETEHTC
# BJ [16] = experiment: cytotoxicity toward BJ-TERT-LT-ST fibroblasts, dose response, cell-based, RAS-independent, luminescence (AID 1935); format: functional; details: Homo sapiens;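 also: BJ fibroblasts immortalized with TERT plus LT and ST oncogenes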
# [17] = target: T8, Dual specificity protein phosphatase 6 (Rattus norvegicus, UniProt Q64346); format: functional
# T8 sequence (Q64346 whole entry): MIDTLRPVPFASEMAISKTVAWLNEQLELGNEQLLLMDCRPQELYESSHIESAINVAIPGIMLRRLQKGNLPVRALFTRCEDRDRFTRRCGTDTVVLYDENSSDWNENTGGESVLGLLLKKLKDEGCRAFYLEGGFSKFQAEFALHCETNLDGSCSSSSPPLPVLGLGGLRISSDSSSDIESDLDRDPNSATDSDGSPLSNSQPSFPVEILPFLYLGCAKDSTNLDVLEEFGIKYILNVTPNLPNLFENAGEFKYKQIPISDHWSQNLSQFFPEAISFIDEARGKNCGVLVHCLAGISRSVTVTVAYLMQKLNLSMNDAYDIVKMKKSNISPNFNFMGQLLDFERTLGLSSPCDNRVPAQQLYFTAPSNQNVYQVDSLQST
# [18] = target: T9, Tyrosine-protein phosphatase non-receptor type 7 (Homo sapiens, UniProt P35236); format: functional
# T9 sequence (P35236 whole entry): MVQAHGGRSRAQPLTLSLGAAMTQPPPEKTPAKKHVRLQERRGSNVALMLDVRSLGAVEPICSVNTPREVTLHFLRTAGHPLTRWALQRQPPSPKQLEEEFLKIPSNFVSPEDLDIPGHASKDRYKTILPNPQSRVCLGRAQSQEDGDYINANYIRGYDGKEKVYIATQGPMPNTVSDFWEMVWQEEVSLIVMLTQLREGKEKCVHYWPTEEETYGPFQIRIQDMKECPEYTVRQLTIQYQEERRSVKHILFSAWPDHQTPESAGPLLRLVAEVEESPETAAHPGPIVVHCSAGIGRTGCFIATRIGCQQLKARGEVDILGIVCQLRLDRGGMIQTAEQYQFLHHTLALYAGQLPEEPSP
# [19] = target: Glyceraldehyde-3-phosphate dehydrogenase (Homo sapiens, UniProt P04406)
# Glyceraldehyde-3-phosphate dehydrogenase, sequence (P04406 whole entry): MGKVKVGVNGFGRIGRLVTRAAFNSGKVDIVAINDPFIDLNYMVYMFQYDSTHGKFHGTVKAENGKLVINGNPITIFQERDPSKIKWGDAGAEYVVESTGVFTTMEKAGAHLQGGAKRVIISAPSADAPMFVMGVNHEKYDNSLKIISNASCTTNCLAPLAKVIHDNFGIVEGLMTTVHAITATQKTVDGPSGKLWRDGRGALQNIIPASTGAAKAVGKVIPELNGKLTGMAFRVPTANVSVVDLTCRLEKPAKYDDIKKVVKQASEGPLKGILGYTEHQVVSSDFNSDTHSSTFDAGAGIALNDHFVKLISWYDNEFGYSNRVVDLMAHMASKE
# [20] = target: T8, Dual specificity protein phosphatase 6
# 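For EC50 Mean in this document: caspase-3 cleavage of fluorogenic Rh110 DEVD substrate downstream of apoptosome activation.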
structure (smiles),measurement,setting,value
Cc1ccccc1C(=O)c1cccn1CC(=O)NCCN1CCN(c2cccc(C)c2C)CC1,IC50,Cysteine protease ATG4B,25.3 µM (inactive)
same,IC50,[1],6.43 µM (active)
same,IC50,[2],13.2 µM (not active)
same,IC50,Phospholipase A2,17.7 µM (active)
O=C(Nc1nc2ccsc2c(=O)s1)c1ccco1,IC50,[3],> 66.6 µM (inactive)
same,EC50,[4],59 µM (active)
same,IC50,[5],11.8 µM (active)
same,EC50,[6],22.8 µM (active)
same,IC50,[7],15.9 µM (active)
same,IC50,[8],> 50 µM (inactive)
Cc1cccc(N2C(=O)NC(=O)/C(=C\C=C\c3ccco3)C2=O)c1,AC50,[9],3.06 µM (active)
same,EC50,BJ [10],11.3 µM (active)
same,AC50,A-375,28.4 µM (active)
same,EC50,BJ [11],4.02 µM (active)
same,EC50,[12],3.62 µM (active)
same,AC50,[13],26.4 µM (active)
same,AC50,[14],25.6 µM (active)
same,AC50,[15],5.75 µM (active)
same,EC50,BJ [16],4.93 µM (inconclusive)
CCn1c(SCC(=O)O)nc2sc3c(c2c1=O)CCCC3,IC50,[17],> 100 µM (inactive)
same,IC50,[18],> 100 µM (not active)
same,IC50,[19],> 100 µM (not active)
same,IC50,[20],> 100 µM (inactive)
